Data on 20 compounds can be found in US8263598B2, “Substituted sulfonamide compounds” (Gruenenthal GmbH, priority 2008, dated 2012).

The target of assay [1] is T1, human B1R receptor (hB1R) (Homo sapiens, UniProt P46663).
T1 construct: host or cells: CHO K1 cells
T1 sequence (P46663 1-353): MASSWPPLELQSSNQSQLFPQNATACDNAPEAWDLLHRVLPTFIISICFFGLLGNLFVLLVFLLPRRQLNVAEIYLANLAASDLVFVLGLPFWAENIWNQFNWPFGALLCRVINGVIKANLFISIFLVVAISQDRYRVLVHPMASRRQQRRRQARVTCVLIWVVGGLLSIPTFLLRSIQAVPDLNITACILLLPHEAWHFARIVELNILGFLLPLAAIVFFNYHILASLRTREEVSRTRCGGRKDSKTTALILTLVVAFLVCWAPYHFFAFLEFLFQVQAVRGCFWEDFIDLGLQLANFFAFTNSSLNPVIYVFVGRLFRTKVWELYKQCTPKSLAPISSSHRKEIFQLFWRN
The experiment in a line: FLIPR Ca2+ assay on human bradykinin 1 receptor (CHO K1 hB1R cells). In kind it is cell-based. The conditions noted are these: test substance 10 μM; CHO K1 cells with human B1R gene; agonist Lys-Des-Arg9-bradykinin 0.5 nM; compared to maximum achievable inhibition. The gist of the method: (§1)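 Values are percent inhibition of agonist-evoked Ca²⁺ influx, measured by Fluo-4 fluorescence peak in FLIPR relative to maximum achievable inhibition. Compound at 10 μM was preincubated 10 min on B1R-transfected CHO K1 cells before challenge with 0.5 nM Lys-Des-Arg9-bradykinin (human) or 100 nM Des-Arg9-bradykinin (rat).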

In assay [2] the target is T2, B1R receptor of rats (rB1R) (Rattus norvegicus, UniProt P97583).
T2 construct: host or cells: CHO K1 cells
T2 sequence (P97583 1-337): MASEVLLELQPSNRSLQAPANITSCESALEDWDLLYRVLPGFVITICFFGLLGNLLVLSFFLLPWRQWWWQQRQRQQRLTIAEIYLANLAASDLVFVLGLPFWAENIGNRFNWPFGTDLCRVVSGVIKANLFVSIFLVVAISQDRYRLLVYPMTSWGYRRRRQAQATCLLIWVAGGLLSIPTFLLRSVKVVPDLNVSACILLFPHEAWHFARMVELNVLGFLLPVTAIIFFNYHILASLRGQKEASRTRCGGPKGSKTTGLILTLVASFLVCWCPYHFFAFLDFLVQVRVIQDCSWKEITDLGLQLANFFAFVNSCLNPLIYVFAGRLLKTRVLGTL
The experiment in a line: FLIPR Ca2+ assay on rat bradykinin 1 receptor (CHO K1 rB1R cells). As to conditions: test substance 10 μM; CHO K1 cells with B1R gene of rats; agonist Des-Arg9-bradykinin 100 nM; compared to maximum achievable inhibition. In kind it is cell-based. The gist of the method:
as §1

Regarding `COc1cc(C)c(S(=O)(=O)N(C)CCOCC(=O)N2CCn3c(ccc3-c3ccncc3)C2)c(C)c1` [Example 177, 4-Methoxy-N,2,6-trimethyl-N-(2-(2-oxo-2-(6-(pyridin-4-yl)-3,4-dihydropyrrolo[1,2-a]pyrazin-2(1H)-yl)ethoxy)ethyl)benzenesulfonamide], the inhibition (in general, the drop in the measured response relative to a control, in per cent) at 10 µM is 99% in assay [1] and 97% in assay [2].
In the same order, the values of `O=C(CC(NS(=O)(=O)c1ccc2ccccc2c1)c1ccccc1)N1CCn2c(CCc3cccnc3)ccc2C1` (stereo not shown) [Example 171, N-(3-Oxo-1-phenyl-3-(6-(2-(pyridin-3-yl)ethyl)-3,4-dihydropyrrolo[1,2-a]pyrazin-2(1H)-yl)propyl)naphthalene-2-sulfonamide] are 30% and 99%.
On the same counts, the results for `COc1cc(C)c(S(=O)(=O)N(C)CCOCC(=O)N2CCn3c(nc(CN4CCCCC4)c3Cl)C2)c(C)c1` [Example 6, N-(2-(2-(3-chloro-2-(piperidin-1-ylmethyl)-5,6-dihydroimidazo[1,2-a]pyrazin-7(8H)-yl)-2-oxoethoxy)ethyl)-4-methoxy-N,2,6-trimethylbenzenesulfonamide] are 100% and 99%.
On the same counts, the results for `COc1c(C)cc(S(=O)(=O)N(C)CCOCC(=O)N2CCn3c(CN(C)C)ccc3C2CCc2ccccc2)c(C)c1C` (stereo not shown) [Example 110, N-(2-(2-(6-((dimethylamino)methyl)-1-phenethyl-3,4-dihydropyrrolo[1,2-a]pyrazin-2(1H)-yl)-2-oxoethoxy)ethyl)-4-methoxy-N,2,3,5-tetramethylbenzene-sulfonamide] are 103% and 100%.
For the compound `Cc1cc(C)c(S(=O)(=O)N(C)CCOCC(=O)N2CCn3cccc3C2c2ccccc2)c(C)c1` (stereo not shown) [Example 70, N,2,4,6-tetramethyl-N-(2-(2-oxo-2-(1-phenyl-3,4-dihydropyrrolo[1,2-a]pyrazin-2(1H)-yl)ethoxy)ethyl)benzenesulfonamide], the inhibition at 10 µM in assay [1] is 101%; in assay [2] it was 99%.
In the same order, the values of `CCCC1c2cccn2CCN1C(=O)COCCN(C)S(=O)(=O)c1cc(C)c(OC)c(C)c1C` (stereo not shown) [Example 115, 4-methoxy-N,2,3,5-tetramethyl-N-(2-(2-oxo-2-(1-propyl-3,4-dihydropyrrolo[1,2-a]pyrazin-2(1H)-yl)ethoxy)ethyl)benzenesulfonamide] are 91% and 97%.
Turning to `COc1cc(C)c(S(=O)(=O)N(C)CCOCC(=O)N2CCn3cc(-c4ccncc4)nc3C2)c(C)c1` [Example 175, 4-Methoxy-N,2,6-trimethyl-N-(2-(2-oxo-2-(2-(pyridin-4-yl)-5,6-dihydroimidazo[1,2-a]pyrazin-7(8H)-yl)ethoxy)ethyl)benzenesulfonamide], the results for the inhibition at 10 µM in assay [1] and in assay [2] were 100% and 102%, respectively.
In the same order, the values of `COc1cc(C)c(S(=O)(=O)N(CCOCC(=O)N2CCn3c(CN(C)C)ccc3C2c2cccs2)Cc2ccccc2)c(C)c1C` (stereo not shown) [Example 121, N-benzyl-N-(2-(2-(6-((dimethylamino)methyl)-1-(thiophen-2-yl)-3,4-dihydropyrrolo[1,2-a]pyrazin-2(1H)-yl)-2-oxoethoxy)ethyl)-4-methoxy-2,3,6-trimethylbenzene-sulfonamide] are 101% and 102%.
On the same counts, the results for `CCC1c2ccc(C)n2CCN1C(=O)COCCN(C)S(=O)(=O)c1c(C)cc(OC)cc1C` (stereo not shown) [Example 138, N-(2-(2-(1-ethyl-6-methyl-3,4-dihydropyrrolo[1,2-a]pyrazin-2(1H)-yl)-2-oxoethoxy)ethyl)-4-methoxy-N,2,6-trimethylbenzenesulfonamide] are 104% and 102%.
Take `CCCCC1c2ccc(CN(C)C)n2CCN1C(=O)COCCN(Cc1ccccc1)S(=O)(=O)c1c(C)cc(OC)c(C)c1C` (stereo not shown) [Example 120, N-benzyl-N-(2-(2-(1-butyl-6-((dimethylamino)methyl)-3,4-dihydropyrrolo[1,2-a]pyrazin-2(1H)-yl)-2-oxoethoxy)-ethyl)-4-methoxy-2,3,6-trimethyl-benzenesulfonamide]: the inhibition at 10 µM in assay [1] worked out at 84%; in assay [2] it was 92%.
Regarding `COc1cc(C)c(S(=O)(=O)N(CCOCC(=O)N2CCn3c(CN(C)C)ccc3C2Cc2ccccc2)CC(C)C)c(C)c1C` (stereo not shown) [Example 95, N-(2-(2-(1-benzyl-6-((dimethylamino)methyl)-3,4-dihydropyrrolo[1,2-a]pyrazin-2(1H)-yl)-2-oxoethoxy)ethyl)-N-isobutyl-4-methoxy-2,3,6-trimethylbenzene-sulfonamide], the inhibition at 10 µM in assay [1] and in assay [2] was 101% throughout.
In the case of `COc1cc(C)c(S(=O)(=O)N(CCOCC(=O)N2CCn3c(CN4CCCC4)ccc3C2c2ccccc2)CC(C)C)c(C)c1C` (stereo not shown) [Example 92, N-isobutyl-4-methoxy-2,3,6-trimethyl-N-(2-(2-oxo-2-(1-phenyl-6-(pyrrolidin-1-ylmethyl)-3,4-dihydropyrrolo[1,2-a]pyrazin-2(1H)-yl)ethoxy)ethyl)benzene-sulfonamide], the inhibition at 10 µM in assay [1] and in assay [2] was 102% in each case.
With `COc1cc(C)c(S(=O)(=O)N(C)CCOCC(=O)N2CCn3cccc3C2c2cccnc2)c(C)c1C` (stereo not shown) [Example 81, 4-methoxy-N,2,3,6-tetramethyl-N-(2-(2-oxo-2-(1-(pyridin-3-yl)-3,4-dihydropyrrolo[1,2-a]pyrazin-2(1H)-yl)ethoxy)ethyl)benzenesulfonamide], the inhibition at 10 µM in assay [1] came to 98%; in assay [2], 99%.
In the same order, the values of `CCCC1c2cccn2CCN1C(=O)COCCN(C)S(=O)(=O)c1c(C)cc(OC)cc1C` (stereo not shown) [Example 136, 4-methoxy-N,2,6-trimethyl-N-(2-(2-oxo-2-(1-propyl-3,4-dihydropyrrolo[1,2-a]-pyrazin-2(1H)-yl)ethoxy)ethyl)benzenesulfonamide] are 104% and 103%.
Regarding `COc1cc(C)c(S(=O)(=O)N(C)CCOCC(=O)N2CCn3cnnc3C2)c(C)c1` [Example 3, N-(2-(2-(5,6-dihydro-[1,2,4]triazolo[4,3-a]pyrazin-7(8H)-yl)-2-oxoethoxy)ethyl)-4-methoxy-N,2,6-trimethylbenzenesulfonamide], the inhibition at 10 µM was 43% in assay [1] and 93% in assay [2].
On the same counts, the results for `COc1cc(C)c(S(=O)(=O)N(CCOCC(=O)N2CCn3cccc3C2C)Cc2ccccc2)c(C)c1C` (stereo not shown) [Example 40, N-benzyl-4-methoxy-2,3,6-trimethyl-N-(2-(2-(1-methyl-3,4-dihydropyrrolo[1,2-a]pyrazin-2(1H)-yl)-2-oxoethoxy)ethyl)benzenesulfonamide] are 34% and 95%.
On the same counts, the results for `Cc1cc(C)c(S(=O)(=O)N(C)CCOCC(=O)N2CCn3cccc3C2c2ccc(C(C)(C)C)cc2)c(C)c1` (stereo not shown) [Example 78, N-(2-(2-(1-(4-tert-butylphenyl)-3,4-dihydropyrrolo[1,2-a]pyrazin-2(1H)-yl)-2-oxoethoxy)ethyl)-N,2,4,6-tetramethylbenzenesulfonamide] are 32% and 77%.
As to `Cc1cc(C)c(S(=O)(=O)N(C)CCOCC(=O)N2CCn3cccc3C2C(C)C)c(C)c1` (stereo not shown) [Example 147, N-(2-(2-(1-isopropyl-3,4-dihydropyrrolo[1,2-a]pyrazin-2(1H)-yl)-2-oxoethoxy)ethyl)-N,2,4,6-tetramethylbenzenesulfonamide], the inhibition at 10 µM in assay [1] and in assay [2] was 103% each time.
With `COc1cc(C)c(S(=O)(=O)N(C)CCOCC(=O)N2CCn3cccc3C2C(C)(C)C)c(C)c1C` (stereo not shown) [Example 79, N-(2-(2-(1-tert-butyl-3,4-dihydropyrrolo[1,2-a]pyrazin-2(1H)-yl)-2-oxoethoxy)ethyl)-4-methoxy-N,2,3,6-tetramethylbenzenesulfonamide], the inhibition at 10 µM in assay [1] was found to be 101%; in assay [2], 100%.
In the same order, the values of `O=C(C[C@@H](NS(=O)(=O)c1ccc2ccccc2c1)c1ccccc1)N1CCn2c(nc(CN3CCCCC3)c2Cl)C1` [Example 5, (R)-N-(3-(3-chloro-2-(piperidin-1-ylmethyl)-5,6-dihydroimidazo[1,2-a]pyrazin-7(8H)-yl)-3-oxo-1-phenylpropyl)naphthalene-2-sulfonamide] are 99% and 97%.
